Measurements as given in patent US20050176649A1, “Iap binding peptides and assays for identifying compounds that bind iap” (priority 2001, published 2005).
Residues, ends and D or L forms follow the SMILES beside them.

B1: ALPI (peptide)
peptide: ALPI
notes: Synthetic tetrapeptide
B2: AIPI (peptide)
peptide: AIPI
notes: Synthetic tetrapeptide
B3: AKPI (peptide)
peptide: AKPI
notes: Synthetic tetrapeptide
B4: AYPI (peptide)
peptide: AYPI
notes: Synthetic tetrapeptide
B5: ACPI (peptide)
peptide: ACPI
notes: Synthetic tetrapeptide
B6: AMPI (peptide)
peptide: AMPI
notes: Synthetic tetrapeptide
B7: AFPI (peptide)
peptide: AFPI
notes: Synthetic tetrapeptide
B8: AQPI (peptide)
peptide: AQPI
notes: Synthetic tetrapeptide

How the values were obtained:
[1] = target: Recombinant XIAP-BIR3 (residues 238-358) (UniProt P98170); assay: fluorescence competition, displacement of AVPC-badan from BIR3
Chain of Recombinant XIAP-BIR3 (residues 238-358) (UniProt P98170) (P98170 238-358 limits assumed): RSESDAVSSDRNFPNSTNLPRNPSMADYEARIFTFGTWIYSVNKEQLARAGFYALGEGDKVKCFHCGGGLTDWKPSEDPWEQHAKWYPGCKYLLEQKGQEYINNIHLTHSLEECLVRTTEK

[2] = target: T1, BIR3 domain of XIAP (recombinant XIAP-BIR3, residues 238-358) (Homo sapiens, UniProt P98170); assay: Fluorescence-based competition assay of tetrapeptide libraries (Example 1); format: binding, mammalian
T1 construct: Recombinant XIAP-BIR3 (residues 238-358); GST (N, cleaved yes); made in house; host or cells: E. coli
T1 sequence (P98170 238-358): as the sequence (P98170 238-358 limits assumed) above
Description: Expression and Purification of BIR3. […] The soluble fraction of the GST-BIR3 in the E. coli lysate was purified over a glutathione sepharose column, and further purified by anion exchange chromatography (Mono-Q, Amersham Biosciences). The fusion protein was cleaved by thrombin, and the GST portion was removed by the glutathione sepharose column. The BIR3 protein was further purified over a gel filtration column (Superdex 30, Amersham Biosciences).
Fluorescence Experiments. Luminescence spectra were recorded using a Photon Technologies, Inc. fluorometer with a Xe arc lamp and a PMT detector. […] The buffer used in all of the fluorescence experiments was 50 mM potassium phosphate, 100 mM NaCl, 2 mM 1,4-dithio-DL-threitol (DTT), pH 7.
Assay of Tetrapeptide Libraries. The samples were prepared in a 96 well plate lined with glass tubes, to prevent adsorption of the dye to plastic. The plate was stored on ice in the dark between measurements. […] 390 μL of this stock solution were added to 50 wells of the 96 well plate. 50 μL of the test tetrapeptide solutions were added and mixed immediately prior to taking the emission spectra. The final solutions were 5 μM in both badan and BIR3, and approximately 20-30 μM in the tetrapeptide solutions. […] 50 μL of water was added to these wells, again as controls, to determine the intensity of the unbound dye.
The binding of various tetrapeptide mimics to the BIR3 domain of XIAP was determined using a fluorescence-based competition assay. The assay is based on an environment-sensitive fluorogenic dye molecule, badan. Badan is a dye whose sensitivity to environmental changes has previously been used to probe protein binding interactions. […] As the dye is displaced from the binding pocket by the test molecule, the emission shifts back towards the aquated spectrum.

BIR3 domain of XIAP = target: T2, BIR3 domain of XIAP (Homo sapiens, UniProt P98170); assay: Fluorescence displacement assay: AVPC-badan displaced from BIR3 by test tetrapeptide (typical assay, Tables 1 and 2); format: binding, mammalian; conditions: for K: binding (equilibrium) constant for displacement of AVP-dye, position-4 library, 5 μM dye and protein, larger = greater affinity; for Intensity (470 nm): emission intensity of AVPC-badan with BIR3 and test tetrapeptide, excitation 387 nm, lower = more dye displaced; for Fraction free: fraction of AVPC-badan free (displaced from BIR3), from intensity at 470 nm
T2 construct: Recombinant XIAP-BIR3 (residues 238-358); GST (N, cleaved yes); made in house; host or cells: E. coli
T2 sequence (P98170 238-358): as the sequence (P98170 238-358 limits assumed) above
Description: The ability to quickly assay small molecules for their effectiveness in disrupting protein-protein interactions is critical to the development of viable drug candidates. One aspect of the present invention comprises an assay to test the binding affinity of a library of tetrapeptide molecules for the BIR3 domain of an inhibitor of apoptosis protein (LAP), particularly the mammalian XIAP. The assay is based on a detectable label, preferably a fluorogenic dye molecule. In preferred embodiments, the fluorophore is attached to a tripeptide, AVP, whose sequence matches the N-terminal three residues of Smac. The general structure of this molecule, therefore, is AVP[X], wherein X is the fluorophore. The molecule is referred to herein as an “AVP-dye”. The AVP-dye packs into the groove of the BIR3, causing a large shift in emission maximum and intensity when the environment of the dye changes from water to the hydrophobic pocket of the protein. If a molecule (e.g. the native Smac protein or a tetrapeptide mimic) displaces the dye, then emission will shift back to the spectrum observed in water. Since the emission intensity is related to the binding of the tetrapeptide, the intensity can be used to estimate the equilibrium constant, K, for displacement of the AVP-dye by the tetrapeptide. The larger the equilibrium constant, the greater affinity the tetrapeptide has for the BIR3.
The aforementioned AVP-dye is used in an assay of test compounds that may, like the Smac tetrapeptide AVPI, bind to the BIR3 domain of XIAP, thereby relieving XIAP-mediated suppression of apoptosis. This is a high-throughput, cell-free assay, that is assembled as follows. A protein comprising the BIR3 domain of an IAP is placed in an assay medium comprising a suitable buffer, as described above. Preferably, this is a recombinant protein comprising the BIR3 domain, but a full IAP protein also may be used. An aliquot of the AVP-dye is added to the reaction mixture, in the presence of the test compound. Controls comprise the BIR3 and the dye in the absence of the test compound and, optionally, BIR3 and the dye in the presence of the naturally occurring tetrapeptide, AVPI. […] Alternatively, a emission spectrum is measured at the selected excitation wavelength. In one type of measurement, the test compound is added and an emission spectrum is measured by scanning from, e.g., 460-480 nm. In another type of measurement, the emission intensity at a particular wavelength, e.g., 470 nm, is measured. […] Thus, the binding affinity of the test compound may be calculated as a function of its ability to displace the dye from the BIR3 domain, according to the following calculation: [formula]
Stock solution of badan, BIR3, and buffer were mixed: 2.5 ml of badan, 1.75 ml BIR3, and 15.25 ml of buffer were mixed in a glass vial which had been chilled to 4° C. Added 390 μL of the stock solution to 50 wells in the pre-chilled 96 well plate (wells A1-E2).
Stock solution of badan and buffer were mixed: 150 μL badan and 1020 μL of buffer were mixed in a small glass vial (also chilled) and added to 3 wells on the plate in 390 μL aliquots (F1-F3).
The 96 well plate was stored over ice in an insulated bucket while the emission spectra of the samples were taken. Fifty μL of the appropriate test solution (or water, for the control experiments) was added with a micropipet, the solution mixed with a Pasteur pipet before adding the sample to the fluorescence cuvette. While one sample was being scanned, the cuvette from the previous scan was washed with EtOH and then next sample was prepared.

[3] = target: T3, Recombinant XIAP-BIR3 (residues 238-358) (UniProt P98170 238-358); assay: fluorescence competition, displacement of AVPC-badan from BIR3
T3 construct: also called BIR3 domain of XIAP; BIR3 protein
T3 sequence (P98170 238-358 limits assumed): as above
Description: The samples were prepared in a 96 well plate lined with glass tubes, to prevent adsorption of the dye to plastic. The plate was stored on ice in the dark between measurements. A small volume cuvette, with a path length of 2 mm, was used to collect the emission spectra. […] 390 μL of this stock solution were added to 50 wells of the 96 well plate. 50 μL of the test tetrapeptide solutions were added and mixed immediately prior to taking the emission spectra. […] 50 μL of water was added to these wells, again as controls, to determine the intensity of the unbound dye.
The binding of various tetrapeptide mimics to the BIR3 domain of XIAP was determined using a fluorescence-based competition assay. […] As the dye is displaced from the binding pocket by the test molecule, the emission shifts back towards the aquated spectrum.

Row | Molecule | Kd [2] [µM] | K (BIR3 domain of XIAP) | Kd [3] [nM] | further results
1 | AbuVPI (peptide) | – | – | – | Fraction free [1]: 0.887; Intensity (470 nm) [1]: 34800
2 | CC(C)C[C@H](NC(=O)[C@@H]1CCCN1C(=O)[C@@H](NC(=O)[C@H](C)N)C(C)C)C(N)=O [AVPL] (H-AVPL-NH2; N-terminus and C-terminus assumed) | 0.49 | 0.3423 | – | –
3 | CC(C)[C@H](NC(=O)[C@H](C)N)C(=O)N1CCC[C@H]1C(=O)N[C@@H](Cc1c[nH]cn1)C(N)=O [AVPH] (H-AVPH-NH2; N-terminus and C-terminus assumed) | 7.3 | 0.07521 | – | –
4 | CC(C)[C@H](NC(=O)[C@H](C)N)C(=O)N1CCC[C@H]1C(=O)N[C@@H](CCCCN)C(N)=O [AVPK] (H-AVPK-NH2; N-terminus and C-terminus assumed) | 28 | 0.00702 | – | –
5 | CC(C)[C@H](NC(=O)[C@H](C)N)C(=O)N1CCC[C@H]1C(=O)N[C@H](C(N)=O)[C@@H](C)O [AVPT] (H-AVPT-NH2; N-terminus and C-terminus assumed) | 2.1 | 0.143 | – | –
6 | CC(C)[C@H](NC(=O)[C@H](C)N)C(=O)N1CCC[C@H]1C(=O)N[C@@H](CCC(=O)O)C(N)=O [AVPE] (H-AVPE-NH2; N-terminus and C-terminus assumed) | 93 | 0.03709 | – | –
7 | CC(C)[C@H](NC(=O)[C@H](C)N)C(=O)N1CCC[C@H]1C(=O)N[C@@H](CC(=O)O)C(N)=O [AVPD] (H-AVPD-NH2; N-terminus and C-terminus assumed) | 7.3 | 0.1799 | – | –
8 | CC(C)[C@H](NC(=O)[C@H](C)N)C(=O)N1CCC[C@H]1C(=O)N[C@@H](Cc1ccc(O)cc1)C(N)=O [AVPY] (H-AVPY-NH2; N-terminus and C-terminus assumed) | 0.3 | 1.1692 | – | Intensity (470 nm) (BIR3 domain of XIAP): 39093; Fraction free (BIR3 domain of XIAP): 0.8657
9 | CC(C)[C@H](NC(=O)[C@H](C)N)C(=O)N1CCC[C@H]1C(=O)N[C@@H](C)C(N)=O [AVPA] (H-AVPA-NH2; N-terminus and C-terminus assumed) | 14 | 0.05518 | – | –
10 | CC(C)[C@H](NC(=O)[C@H](C)N)C(=O)N1CCC[C@H]1C(=O)N1CCC[C@H]1C(N)=O [AVPP] (H-AVPP-NH2; N-terminus and C-terminus assumed) | 5.7 | 0.01069 | – | –
11 | CC(C)[C@H](NC(=O)[C@H](C)N)C(=O)N1CCC[C@H]1C(=O)N[C@@H](Cc1c[nH]c2ccccc12)C(N)=O [AVPW] (H-AVPW-NH2; N-terminus and C-terminus assumed) | 0.11 | 1.0817 | – | Intensity (470 nm) (BIR3 domain of XIAP): 23435; Fraction free (BIR3 domain of XIAP): 0.9418
12 | CC[C@H](C)[C@H](NC(=O)[C@@H]1CCCN1C(=O)[C@H](CCCNC(=N)N)NC(=O)[C@H](C)N)C(N)=O [ARPI] | 0.18 | – | – | Intensity (470 nm) (BIR3 domain of XIAP): 29455; Fraction free (BIR3 domain of XIAP): 0.9125
13 | B1 | – | – | 290 | –
14 | B2 | – | – | 390 | –
15 | B3 | – | – | 570 | –
16 | B4 | – | – | 590 | –
17 | B5 | – | – | 650 | –
18 | B6 | – | – | 730 | –
19 | B7 | – | – | 790 | –
20 | B8 | – | – | 940 | –
